From PubChem BioAssay (NCI)
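Following 48 hours of exposure in 96-well plates, responses at five concentrations were used to interpolate endpoints linearly. The concentration for 50% growth inhibition is given as GI50. TGI: total growth inhibition.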

Legend:
Test in all cases: NCI-60 cell line screen, 48 h
[1] = system: 786-0 renal
[2] = system: A498 renal
[3] = system: A549 NSCLC
[4] = system: ACHN renal
[5] = system: BT-549 breast
[6] = system: CAKI-1 renal
[7] = system: CCRF-CEM leukemia
[8] = system: COLO 205 colon
[9] = system: DU-145 prostate
[10] = system: EKVX NSCLC
[11] = system: HCC-2998 colon
[12] = system: HCT-116 colon
[13] = system: HCT-15 colon
[14] = system: HL-60(TB) leukemia
[15] = system: HOP-62 NSCLC
[16] = system: HOP-92 NSCLC
[17] = system: HS 578T breast
[18] = system: HT29 colon
[19] = system: IGROV1 ovarian
[20] = system: K-562 leukemia
[21] = system: KM12 colon
[22] = system: LOX IMVI melanoma
[23] = system: M14 melanoma
[24] = system: MALME-3M melanoma
[25] = system: MCF7 breast
[26] = system: MDA-MB-231 breast
[27] = system: MDA-MB-435
[28] = system: MOLT-4 leukemia
[29] = system: NCI-H226 lung
[30] = system: NCI-H23 lung
[31] = system: NCI-H460 lung
[32] = system: NCI-H522 lung
[33] = system: NCI/ADR-RES ovarian
[34] = system: OVCAR-3 ovarian
[35] = system: OVCAR-4 ovarian
[36] = system: OVCAR-5 ovarian
[37] = system: OVCAR-8 ovarian
[38] = system: PC-3 prostate
[39] = system: RPMI-8226 leukemia
[40] = system: RXF 393 renal
[41] = system: SF-268 CNS
[42] = system: SF-295 CNS
[43] = system: SF-539 CNS
[44] = system: SK-MEL-2 melanoma
[45] = system: SK-MEL-28 melanoma
[46] = system: SK-MEL-5 melanoma
[47] = system: SK-OV-3 ovarian
[48] = system: SN12C renal
[49] = system: SNB-19 CNS
[50] = system: SNB-75 CNS
[51] = system: SR leukemia
[52] = system: SW-620 colon
[53] = system: T-47D breast
[54] = system: TK-10 renal
[55] = system: U251 CNS
[56] = system: UACC-257 melanoma
[57] = system: UACC-62 melanoma
[58] = system: UO-31 renal

Q: Which GI50 [1] does the source give for `COc1ccc([C@H]2[C@H](O)C(=O)N2c2cc(OC)c(OC)c(OC)c2)cc1F` here?
A: The GI50 was less than 10 nM.

Q: And the TGI [1]?
A: The TGI was greater than 100000 nM.

Q: What about the GI50 [2] of the same molecule?
A: Its GI50 is greater than 100000 nM.

Q: What about the TGI [2] of the same molecule?
A: Its TGI is greater than 100000 nM.

Q: And the GI50 [3]?
A: Its GI50 is less than 10 nM.

Q: What about the TGI [3] of the same molecule?
A: The TGI was greater than 100000 nM.

Q: What about the GI50 [4] of the same molecule?
A: The GI50 was less than 10 nM.

Q: What about the TGI [4] of the same molecule?
A: The TGI was greater than 100000 nM.

Q: What about the GI50 [5] of the same molecule?
A: The GI50 was less than 10 nM.

Q: What about the GI50 [6] of the same molecule?
A: The GI50 was less than 10 nM.

Q: And the TGI [6]?
A: Its TGI is greater than 100000 nM.

Q: What about the GI50 [7] of the same molecule?
A: The GI50 was less than 10 nM.

Q: What about the TGI [7] of the same molecule?
A: The TGI was greater than 100000 nM.

Q: And the GI50 [8]?
A: The GI50 was less than 10 nM.

Q: And the TGI [8]?
A: The TGI was less than 10 nM.

Q: And the GI50 [9]?
A: The GI50 was less than 10 nM.

Q: What about the TGI [9] of the same molecule?
A: Its TGI is greater than 100000 nM.

Q: And the TGI [10]?
A: The TGI was greater than 100000 nM.

Q: And the GI50 [11]?
A: The GI50 was less than 10 nM.

Q: What about the GI50 [12] of the same molecule?
A: Its GI50 is less than 10 nM.

Q: What about the TGI [12] of the same molecule?
A: Its TGI is greater than 100000 nM.

Q: What about the GI50 [13] of the same molecule?
A: The GI50 was less than 10 nM.

Q: What about the TGI [13] of the same molecule?
A: The TGI was greater than 100000 nM.

Q: What about the GI50 [14] of the same molecule?
A: The GI50 was less than 10 nM.

Q: And the GI50 [15]?
A: Its GI50 is less than 10 nM.

Q: And the TGI [15]?
A: The TGI was greater than 100000 nM.

Q: And the TGI [16]?
A: Its TGI is greater than 100000 nM.

Q: And the GI50 [17]?
A: The GI50 was less than 10 nM.

Q: And the TGI [17]?
A: Its TGI is greater than 100000 nM.

Q: What about the GI50 [18] of the same molecule?
A: Its GI50 is less than 10 nM.

Q: What about the TGI [18] of the same molecule?
A: Its TGI is less than 10 nM.

Q: And the GI50 [19]?
A: The GI50 was less than 10 nM.

Q: And the TGI [19]?
A: The TGI was greater than 100000 nM.

Q: And the GI50 [20]?
A: Its GI50 is less than 10 nM.

Q: What about the TGI [20] of the same molecule?
A: The TGI was greater than 100000 nM.

Q: And the GI50 [21]?
A: Its GI50 is less than 10 nM.

Q: What about the TGI [21] of the same molecule?
A: Its TGI is greater than 100000 nM.

Q: What about the GI50 [22] of the same molecule?
A: Its GI50 is less than 10 nM.

Q: What about the TGI [22] of the same molecule?
A: Its TGI is greater than 100000 nM.

Q: What about the GI50 [23] of the same molecule?
A: The GI50 was less than 10 nM.

Q: What about the TGI [23] of the same molecule?
A: Its TGI is greater than 100000 nM.

Q: And the GI50 [24]?
A: The GI50 was less than 10 nM.

Q: What about the TGI [24] of the same molecule?
A: The TGI was greater than 100000 nM.

Q: And the GI50 [25]?
A: The GI50 was less than 10 nM.

Q: And the TGI [25]?
A: The TGI was greater than 100000 nM.

Q: And the GI50 [26]?
A: Its GI50 is less than 10 nM.

Q: And the TGI [26]?
A: The TGI was greater than 100000 nM.

Q: What about the GI50 [27] of the same molecule?
A: The GI50 was less than 10 nM.

Q: What about the TGI [27] of the same molecule?
A: The TGI was less than 10 nM.

Q: What about the GI50 [28] of the same molecule?
A: Its GI50 is less than 10 nM.

Q: And the TGI [28]?
A: The TGI was greater than 100000 nM.

Q: What about the GI50 [29] of the same molecule?
A: Its GI50 is less than 10 nM.

Q: And the GI50 [30]?
A: Its GI50 is less than 10 nM.

Q: And the TGI [30]?
A: The TGI was greater than 100000 nM.

Q: What about the GI50 [31] of the same molecule?
A: Its GI50 is less than 10 nM.

Q: What about the TGI [31] of the same molecule?
A: The TGI was greater than 39100 nM.

Q: What about the GI50 [32] of the same molecule?
A: Its GI50 is less than 10 nM.

Q: And the TGI [32]?
A: The TGI was less than 10 nM.

Q: And the GI50 [33]?
A: The GI50 was less than 10 nM.

Q: And the GI50 [34]?
A: The GI50 was less than 10 nM.

Q: What about the TGI [34] of the same molecule?
A: The TGI was greater than 100000 nM.

Q: And the GI50 [35]?
A: The GI50 was 546 nM.

Q: What about the TGI [35] of the same molecule?
A: Its TGI is greater than 100000 nM.

Q: What about the GI50 [36] of the same molecule?
A: The GI50 was less than 10 nM.

Q: And the TGI [36]?
A: Its TGI is greater than 100000 nM.

Q: What about the GI50 [37] of the same molecule?
A: Its GI50 is less than 10 nM.

Q: What about the GI50 [38] of the same molecule?
A: The GI50 was less than 10 nM.

Q: And the TGI [38]?
A: Its TGI is greater than 100000 nM.

Q: And the GI50 [39]?
A: Its GI50 is less than 10 nM.

Q: What about the TGI [39] of the same molecule?
A: The TGI was greater than 34500 nM.

Q: And the GI50 [40]?
A: The GI50 was less than 10 nM.

Q: What about the GI50 [41] of the same molecule?
A: Its GI50 is less than 10 nM.

Q: What about the TGI [41] of the same molecule?
A: Its TGI is greater than 100000 nM.

Q: What about the GI50 [42] of the same molecule?
A: Its GI50 is less than 10 nM.

Q: What about the TGI [42] of the same molecule?
A: The TGI was greater than 100000 nM.

Q: What about the GI50 [43] of the same molecule?
A: Its GI50 is less than 10 nM.

Q: And the TGI [43]?
A: The TGI was less than 10 nM.

Q: What about the GI50 [44] of the same molecule?
A: The GI50 was less than 10 nM.

Q: And the TGI [44]?
A: The TGI was greater than 94800 nM.

Q: What about the GI50 [45] of the same molecule?
A: The GI50 was less than 10 nM.

Q: And the TGI [45]?
A: Its TGI is greater than 100000 nM.

Q: And the GI50 [46]?
A: The GI50 was less than 10 nM.

Q: What about the TGI [46] of the same molecule?
A: Its TGI is 12 nM.

Q: And the GI50 [47]?
A: Its GI50 is less than 10 nM.

Q: And the TGI [47]?
A: Its TGI is greater than 100000 nM.

Q: And the GI50 [48]?
A: The GI50 was less than 10 nM.

Q: And the TGI [48]?
A: Its TGI is greater than 100000 nM.

Q: And the GI50 [49]?
A: Its GI50 is less than 10 nM.

Q: And the TGI [49]?
A: Its TGI is greater than 100000 nM.

Q: And the GI50 [50]?
A: The GI50 was less than 10 nM.

Q: What about the GI50 [51] of the same molecule?
A: The GI50 was less than 10 nM.

Q: What about the TGI [51] of the same molecule?
A: The TGI was greater than 100000 nM.

Q: And the GI50 [52]?
A: The GI50 was less than 10 nM.

Q: And the TGI [52]?
A: The TGI was greater than 100000 nM.

Q: What about the GI50 [53] of the same molecule?
A: The GI50 was greater than 100000 nM.

Q: And the TGI [53]?
A: The TGI was greater than 100000 nM.

Q: And the GI50 [54]?
A: Its GI50 is greater than 100000 nM.

Q: And the TGI [54]?
A: The TGI was greater than 100000 nM.

Q: What about the GI50 [55] of the same molecule?
A: Its GI50 is less than 10 nM.

Q: What about the TGI [55] of the same molecule?
A: Its TGI is greater than 100000 nM.

Q: What about the TGI [56] of the same molecule?
A: Its TGI is greater than 100000 nM.

Q: What about the GI50 [57] of the same molecule?
A: The GI50 was less than 10 nM.

Q: What about the TGI [57] of the same molecule?
A: The TGI was greater than 100000 nM.

Q: And the GI50 [58]?
A: The GI50 was less than 10 nM.

Q: What about the TGI [58] of the same molecule?
A: Its TGI is greater than 100000 nM.
